Data from patent US12391692B2, “Spiro ring-containing quinazoline compound” (WIGEN BIOMEDICINE TECHNOLOGY (SHANGHAI) CO., LTD., priority 2020, dated 2025).

Experiments:
H358 cells = experiment: Antiproliferative activity against H358 cells (Cell Titer Glow, ultra-low attachment plate); format: cell-based; conditions: Homo sapiens, NCI-H358, 72 h, three days after addition of compound
Procedure: 2500 H358 cells were seeded in a 96-well ultra-low attachment plate (corning, 7007). After one day of growth, a serially diluted compound (a maximum concentration of 5 μM, 5-fold dilution, a total of five doses) was added. Three days after the addition of the compound, Cell Titer Glow (Promega, G9681) was added to evaluate pellet growth, and the IC50 value was calculated.

pERK level in H358 cells = experiment: pERK and ERK protein content assay in H358 cells (ELISA); format: cell-based; conditions: Homo sapiens, NCI-H358, pERK/ERK ratio vs DMSO group, compound 1 μM, 24 h, read-out: Inhibition rate (%)
Procedure: H358 cells were seeded in a 24-well plate. After one day of growth, a test compound (at a concentration of 1 μM) was added. After 24 h of action of the compound, the cells were lysed, and the cell lysate was transferred to a 96-well ELISA plate. The levels of pERK and ERK in the lysate were measured using an ELISA kit (abcam 176660). The ratio of pERK to ERK was calculated and compared with that of the DMSO group, and the percentage of inhibition of pERK activity by the compound was calculated.

C=CC(=O)N1CC2(CCN(c3nc(O[C@H]4C[C@H](N(C)C)C4)nc4c(OCC(F)(F)F)c(-c5c(C)ccc6[nH]ncc56)c(C5CC5)cc34)CC2)C1 [Compound 86]
IC50 (H358 cells): 300 to 1000 nM | inhibition at 1 µM (pERK level in H358 cells): 50 to 90%

C=CC(=O)N1CC2(CCN(c3nc(N4CC(n5cncn5)C4)nc4c(OCC(F)(F)F)c(-c5c(C)ccc6[nH]ncc56)c(C5CC5)cc34)CC2)C1 [Compound 42]
IC50 (H358 cells): > 1000 nM | inhibition at 1 µM (pERK level in H358 cells): 50 to 90%

C=CC(=O)N1CC2(CCN(c3nc(N4CC(n5ccnc5)C4)nc4c(OCC(F)(F)F)c(-c5c(C)ccc6[nH]ncc56)c(C5CC5)cc34)CC2)C1 [Compound 41]
IC50 (H358 cells): 300 to 1000 nM | inhibition at 1 µM (pERK level in H358 cells): 50 to 90%

C=CC(=O)N1CC2(CCN(c3nc(N4CC5(CCCN5C)C4)nc4c(OCC(F)(F)F)c(-c5c(C)ccc6[nH]ncc56)c(C5CC5)cc34)CC2)C1 [Compound 73]
IC50 (H358 cells): < 300 nM | inhibition at 1 µM (pERK level in H358 cells): > 90%

C=CC(=O)N1CC2(CCN(c3nc(N4CC(CN(C)CCO)C4)nc4c(OCC(F)(F)F)c(-c5c(C)ccc6[nH]ncc56)c(C5CC5)cc34)CC2)C1 [Compound 4]
IC50 (H358 cells): < 300 nM | inhibition at 1 µM (pERK level in H358 cells): > 90%

C=CC(=O)N1CC2(CCN(c3nc(N4CC5(CCCN5CC)C4)nc4c(OCC(F)(F)F)c(-c5c(C)ccc6[nH]ncc56)c(C=C)cc34)CC2)C1 [Compound 132]
IC50 (H358 cells): < 300 nM | inhibition at 1 µM (pERK level in H358 cells): > 90%

C=CC(=O)N1CC2(CCN(c3nc(N4CC(N5CCC6(CC5)CC6)C4)nc4c(OCC(F)(F)F)c(-c5c(C)ccc6[nH]ncc56)c(C5CC5)cc34)CC2)C1 [Compound 36]
IC50 (H358 cells): 300 to 1000 nM | inhibition at 1 µM (pERK level in H358 cells): 50 to 90%

C=CC(=O)N1CC2(CCN(c3nc(O[C@H]4C[C@H](N5CCC(F)(F)C5)C4)nc4c(OCC(F)(F)F)c(-c5c(C)ccc6[nH]ncc56)c(C5CC5)cc34)CC2)C1 [Compound 92]
IC50 (H358 cells): > 1000 nM | inhibition at 1 µM (pERK level in H358 cells): 50 to 90%

C=CC(=O)N1CC2(CCN(c3nc(N4CC5(CC(=C)CN5C)C4)nc4c(OCC(F)(F)F)c(-c5c(C)ccc6[nH]ncc56)c(C5CC5)cc34)CC2)C1 [Compound 125]
IC50 (H358 cells): < 300 nM | inhibition at 1 µM (pERK level in H358 cells): > 90%

C=CC(=O)N1CC2(CCN(c3nc(N4CC(N5CC[S+]([O-])CC5)C4)nc4c(OCC(F)(F)F)c(-c5c(C)ccc6[nH]ncc56)c(C5CC5)cc34)CC2)C1 [Compound 26]
IC50 (H358 cells): 300 to 1000 nM | inhibition at 1 µM (pERK level in H358 cells): 50 to 90%

C=CC(=O)N1CC2(CCN(c3nc(N4CC5(C=CCN5C)C4)nc4c(OCC(F)(F)F)c(-c5c(C)ccc6[nH]ncc56)c(C5CC5)cc34)CC2)C1 [Compound 127]
IC50 (H358 cells): < 300 nM | inhibition at 1 µM (pERK level in H358 cells): > 90%

C=CC(=O)N1CC2(CCN(c3nc(N4CC(C(=O)N5CC(N(C)C)C5)C4)nc4c(OCC(F)(F)F)c(-c5c(C)ccc6[nH]ncc56)c(C5CC5)cc34)CC2)C1 [Compound 47]
IC50 (H358 cells): < 300 nM | inhibition at 1 µM (pERK level in H358 cells): > 90%

C=CC(=O)N1CC2(CCN(c3nc(N4CCOC5(CN(CCOC)C5)C4)nc4c(OCC(F)(F)F)c(-c5c(C)ccc6[nH]ncc56)c(C5CC5)cc34)CC2)C1 [Compound 84]
IC50 (H358 cells): 300 to 1000 nM | inhibition at 1 µM (pERK level in H358 cells): 50 to 90%

C=CC(=O)N1CC2(CCN(c3nc(N4CC(OCC5CN(C)C5)C4)nc4c(OCC(F)(F)F)c(-c5c(C)ccc6[nH]ncc56)c(C5CC5)cc34)CC2)C1 [Compound 19]
IC50 (H358 cells): < 300 nM | inhibition at 1 µM (pERK level in H358 cells): > 90%

C=CC(=O)N1CC2(C1)CN(c1nc(N3CC(N4CC5(CC5)C4)C3)nc3c(OCC(F)(F)F)c(-c4c(C)ccc5[nH]ncc45)c(C4CC4)cc13)C2 [Compound 101]
IC50 (H358 cells): < 300 nM | inhibition at 1 µM (pERK level in H358 cells): > 90%

C=CC(=O)N1CC2(CCN(c3nc(N4CC(OCC5COC5)C4)nc4c(OCC(F)(F)F)c(-c5c(C)ccc6[nH]ncc56)c(C5CC5)cc34)CC2)C1 [Compound 18]
IC50 (H358 cells): < 300 nM | inhibition at 1 µM (pERK level in H358 cells): > 90%

C=CC(=O)N1CC2(CCN(c3nc(N4CC5(CCN5C)C4)nc4c(OCC(F)(F)F)c(-c5c(C)ccc6[nH]ncc56)c(C5CC5)cc34)CC2)C1 [Compound 67]
IC50 (H358 cells): < 300 nM | inhibition at 1 µM (pERK level in H358 cells): > 90%

C=CC(=O)N1CC2(CCN(c3nc(N4CC(N(CC)CCCO)C4)nc4c(OCC(F)(F)F)c(-c5c(C)ccc6[nH]ncc56)c(C5CC5)cc34)CC2)C1 [Compound 24]
IC50 (H358 cells): < 300 nM | inhibition at 1 µM (pERK level in H358 cells): > 90%

C=CC(=O)N1CC2(CCN(c3nc(N4CC(CC#N)(N5CCCC5)C4)nc4c(OCC(F)(F)F)c(-c5c(C)ccc6[nH]ncc56)c(C5CC5)cc34)CC2)C1 [Compound 55]
IC50 (H358 cells): < 300 nM | inhibition at 1 µM (pERK level in H358 cells): > 90%

C=CC(=O)N1CC2(CCN(c3nc(N4CC(N5CCS(=O)(=O)CC5)C4)nc4c(OCC(F)(F)F)c(-c5c(C)ccc6[nH]ncc56)c(C5CC5)cc34)CC2)C1 [Compound 27]
IC50 (H358 cells): 300 to 1000 nM | inhibition at 1 µM (pERK level in H358 cells): 50 to 90%

C=CC(=O)N1CC2(CCN(c3nc(N4CC5(CCCCN5C)C4)nc4c(OCC(F)(F)F)c(-c5c(C)ccc6[nH]ncc56)c(C5CC5)cc34)CC2)C1 [Compound 75]
IC50 (H358 cells): 300 to 1000 nM | inhibition at 1 µM (pERK level in H358 cells): 50 to 90%

C=CC(=O)N1CC2(CCN(c3nc(N4CC(COC)C4)nc4c(OCC(F)(F)F)c(-c5c(C)ccc6[nH]ncc56)c(C5CC5)cc34)CC2)C1 [Compound 9]
IC50 (H358 cells): < 300 nM | inhibition at 1 µM (pERK level in H358 cells): > 90%

C=CC(=O)N1CC2(CCN(c3nc(O[C@H]4C[C@@H](N(C)C)C4)nc4c(OCC(F)(F)F)c(-c5c(C)ccc6[nH]ncc56)c(C5CC5)cc34)CC2)C1 [Compound 85]
IC50 (H358 cells): < 300 nM | inhibition at 1 µM (pERK level in H358 cells): > 90%

C=CC(=O)N1CC2(CCN(c3nc(N4CC(N5CC6(COC6)C5)C4)nc4c(OCC(F)(F)F)c(-c5c(C)ccc6[nH]ncc56)c(C5CC5)cc34)CC2)C1 [Compound 30]
IC50 (H358 cells): < 300 nM | inhibition at 1 µM (pERK level in H358 cells): > 90%

C=CC(=O)N1CC2(CCN(c3nc(N4CC5(CCN5C5CCC5)C4)nc4c(OCC(F)(F)F)c(-c5c(C)ccc6[nH]ncc56)c(C5CC5)cc34)CC2)C1 [Compound 70]
IC50 (H358 cells): < 300 nM | inhibition at 1 µM (pERK level in H358 cells): > 90%

C=CC(=O)N1CC2(CCN(c3nc(N4CC5(CCC5)C4)nc4c(OCC(F)(F)F)c(-c5c(C)ccc6[nH]ncc56)c(C5CC5)cc34)CC2)C1 [Compound 66]
IC50 (H358 cells): 300 to 1000 nM | inhibition at 1 µM (pERK level in H358 cells): 50 to 90%

C=CC(=O)N1CC2(CCN(c3nc(N4CC(CN5CCCC5)C4)nc4c(OCC(F)(F)F)c(-c5c(C)ccc6[nH]ncc56)c(C5CC5)cc34)CC2)C1 [Compound 7]
IC50 (H358 cells): < 300 nM | inhibition at 1 µM (pERK level in H358 cells): > 90%

C=CC(=O)N1CC2(CCN(c3nc(N4CC(CC#N)(n5ccnc5)C4)nc4c(OCC(F)(F)F)c(-c5c(C)ccc6[nH]ncc56)c(C5CC5)cc34)CC2)C1 [Compound 57]
IC50 (H358 cells): 300 to 1000 nM | inhibition at 1 µM (pERK level in H358 cells): 50 to 90%

C=CC(=O)N1CC2(CCN(c3nc(N4CCC(N5CC6(CC6)C5)C4)nc4c(OCC(F)(F)F)c(-c5c(C)ccc6[nH]ncc56)c(C5CC5)cc34)CC2)C1 (stereo not shown) [Compound 37]
IC50 (H358 cells): < 300 nM | inhibition at 1 µM (pERK level in H358 cells): > 90%

C=CC(=O)N1CC2(CCN(c3nc(N4CC(N5CC6(CC6)C5)C4)nc4c(OCC(F)(F)F)c(-c5cc(O)cc6ccccc56)c(C5CC5)cc34)CC2)C1 [Compound 111]
IC50 (H358 cells): 300 to 1000 nM | inhibition at 1 µM (pERK level in H358 cells): > 90%

C=CC(=O)N1CC2(CCN(c3nc(N4CC(CC#N)(N5CCC5)C4)nc4c(OCC(F)(F)F)c(-c5c(C)ccc6[nH]ncc56)c(C5CC5)cc34)CC2)C1 [Compound 54]
IC50 (H358 cells): < 300 nM | inhibition at 1 µM (pERK level in H358 cells): > 90%

C=CC(=O)N1CC2(CCN(c3nc(N4CC5(CCCCN5CCOC)C4)nc4c(OCC(F)(F)F)c(-c5c(C)ccc6[nH]ncc56)c(C5CC5)cc34)CC2)C1 [Compound 76]
IC50 (H358 cells): < 300 nM | inhibition at 1 µM (pERK level in H358 cells): > 90%
